Broadly, the IC50 is the concentration needed to halve the response being measured. For orientation: Km means the concentration of substrate that gives half-maximal velocity. By Kd is commonly meant the equilibrium constant for the complex coming apart.

In assay [1] the target is anti-histamine antibody D22.12. Briefly: Displacement of FITC-histamine binding to the anti-histamine antibody by competitor ligand. Also on record: species or system mice. As to the method:
Triplicate determinations in a 96-well plate were performed as described in the Methods, with 6 nM FITC-histamine, 50 nM anti-histamine antibody, and the indicated concentration of competitor ligand.
(§1) In the standard assay, HDC, diluted to 90 nM in HDC Buffer plus 0.9 mM DTT and 99 μM PLP, was added to a black opaque 384-well plate in 20 μL. Test compound in HDC Buffer plus 6% DMSO or buffer alone was added to the plate in 10 μL. 36 nM FITC-histidine and 3.6 mM histidine were combined in FP Buffer and transferred to the plate in 10 μL. Finally, 90 nM […] antibody was added in 20 μL of FP Buffer. Thus, the final concentrations in the assay were: HDC 30 nM, FITC-histidine 6 nM, histidine 600 μM, anti-histamine antibody 30 nM, DMSO 1%. The plate was incubated at 37° C. for 90 minutes. The fluorescence polarization signal was read on an LJL Analyst (Molecular Devices, Sunnyvale, Calif.) with excitation at 485 nm, emission at 530 nm, a fluorescein dichroic mirror at 505 nm and G factor set to 1. A 96-well plate version of the assay, used in assay development, was performed as described above with twice the volumes indicated for 384-well plates.
We first determined the affinity of the probe for the antibody and the specificity of the interaction, both of which are crucial to constructing a robust assay in a competitive mode. […] The probe concentration was held at 6 nM and the antibody concentration varied over approximately 3 logs. […] Probe and antibody concentrations were held constant at 6 and 50 nM, respectively, while the concentrations of histamine and histidine were varied as shown.

For another assay, the target named is T1, HDC (Mus musculus, UniProt P23738).
T1 sequence (P23738 1-662): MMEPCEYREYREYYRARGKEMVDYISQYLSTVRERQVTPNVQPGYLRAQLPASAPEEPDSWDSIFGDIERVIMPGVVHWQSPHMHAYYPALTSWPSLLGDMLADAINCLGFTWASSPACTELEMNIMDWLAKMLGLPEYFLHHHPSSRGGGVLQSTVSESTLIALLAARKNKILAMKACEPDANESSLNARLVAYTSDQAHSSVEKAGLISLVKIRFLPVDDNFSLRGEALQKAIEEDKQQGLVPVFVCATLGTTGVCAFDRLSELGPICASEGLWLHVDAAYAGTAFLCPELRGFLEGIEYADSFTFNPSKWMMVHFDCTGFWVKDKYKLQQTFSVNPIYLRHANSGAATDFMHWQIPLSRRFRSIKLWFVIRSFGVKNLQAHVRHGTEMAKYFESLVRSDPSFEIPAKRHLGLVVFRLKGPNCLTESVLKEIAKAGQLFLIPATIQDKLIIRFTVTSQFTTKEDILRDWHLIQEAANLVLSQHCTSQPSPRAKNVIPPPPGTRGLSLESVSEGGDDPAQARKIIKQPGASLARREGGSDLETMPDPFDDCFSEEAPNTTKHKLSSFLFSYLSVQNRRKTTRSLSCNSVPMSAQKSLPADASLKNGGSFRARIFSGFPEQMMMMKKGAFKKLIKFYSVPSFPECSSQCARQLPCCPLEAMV
The note with it: Watabe et al 1992; read-out: Reported Km; cited from earlier work.

The target of another assay is T2, human HDC (Homo sapiens, UniProt P19113).
T2 construct: containing the first 1431 bases (amino acid residues 1-477) of HDC; made in house; host or cells: Sf9 insect cells (baculovirus, pDEST 20)
T2 sequence (P19113 1-477 S148Q): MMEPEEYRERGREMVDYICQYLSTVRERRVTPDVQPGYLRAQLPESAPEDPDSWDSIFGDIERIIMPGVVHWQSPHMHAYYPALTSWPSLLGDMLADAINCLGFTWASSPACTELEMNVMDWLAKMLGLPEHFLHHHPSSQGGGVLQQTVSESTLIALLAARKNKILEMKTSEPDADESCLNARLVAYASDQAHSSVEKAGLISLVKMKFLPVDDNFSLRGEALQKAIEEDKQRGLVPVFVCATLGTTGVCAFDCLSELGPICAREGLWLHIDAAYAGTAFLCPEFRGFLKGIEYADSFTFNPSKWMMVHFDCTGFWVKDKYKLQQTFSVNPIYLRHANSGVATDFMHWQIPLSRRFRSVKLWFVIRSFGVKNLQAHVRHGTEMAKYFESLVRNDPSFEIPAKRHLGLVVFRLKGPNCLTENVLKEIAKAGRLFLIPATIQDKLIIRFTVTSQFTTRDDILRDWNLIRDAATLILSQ
The assay is described as follows: Histidine decarboxylase fluorescence polarization standard assay. The format is biochemical. The note with it: standard assay: 30 nM HDC, 600 μM histidine, 90 minutes at 37° C.; read-out: IC50 for inhibition of HDC. How it is done: as §1

Assay [2] addresses anti-histamine antibody D22.12. The note with it: read-out: Kd (dissociation constant) of probe for antibody; FITC-histamine at 6 nM, antibody concentration varied over approximately 3 logs. How it is done: as §1
We first determined the affinity of the probe for the antibody and the specificity of the interaction, both of which are crucial to constructing a robust assay in a competitive mode. […] The probe concentration was held at 6 nM and the antibody concentration varied over approximately 3 logs. […]

Where only a bound is given, the exact number is not on record here.

On to `NCCc1c[nH]cn1` [Histamine, histamine], for which, in assay [1] (6 nM FITC-histamine, 50 nM anti-histamine antibody, read-out: IC50 for competition with the probe for antibody binding), the IC50 came to 135 µM. For the same molecule, the “Selectivity for histamine over histidine” value in assay [1] (FP assay) is more than 100 fold. Take `N[C@@H](Cc1c[nH]cn1)C(=O)O` [Histidine, L-Histidine]: the “Competition with FITC-histamine for binding to the antibody” value in assay [1] (6 nM FITC-histamine, 50 nM antibody, over the 5 log range examined) is recorded as “unable to compete”. For the same molecule, at HDC, the Km is 200 to 400 µM. Take `COC(=O)C(N)Cc1c[nH]cn1` (stereo not shown) [methyl ester histidine]: the IC50 on human HDC came to 7.7 µM. Still for that read-out and setting: then `N[C@@](CF)(Cc1cnc[nH]1)C(=O)O` [α-fluoromethyl histidine], with 1.4 µM. “N-[3′,6′-dihydroxy-3-oxospiro[isobenzofuran-[(3H), 9′-[9H]xanthene-5(or 6)-yl]-N′-[2-(1H-imidazol-4-yl)ethyl]-2,4-dimethylthiourea, disodium salt [FITC-histamine]”: the dissociation constant (Kd) in assay [2] was 0.0039 µM.

Source of the values: patent US7608407B2, “Fluorescence polarization assay for determining histidine decarboxylase activity” (Boehringer Ingelheim Pharmaceuticals, Inc., priority 2004, dated 2009).
